Reference: publication PMC12040169 (PLOS Biology, 2025)

Test: in vitro
Conditions: human, hela cells, % viability

Structure (SMILES)	viability at 28.5 h, 10 µM [%]
CC(NC(=O)Cc1cccc(F)c1)c1nnc2n1CCCCC2 (stereo not drawn) [CBK305975]	85.8
COc1ccc(NS(=O)(=O)c2ccc(Cl)c(C(=O)Nc3ccccc3C(=O)O)c2)cc1 [CBK263209]	104
CCn1cc(C(=O)N2C[C@H](C(=O)OC)[C@@H](c3ccc(F)cc3)C2)cn1 [CBK283719]	89.7
CN(C)C(c1ccccc1)c1nnnn1C1CCCCC1 (stereo not drawn) [CBK028032]	105
N#CCCN(C(=O)NCc1ccc(Cl)c(Cl)c1)C1CCCCC1 [CBK156349]	85.5
CCOC(=O)C1CCN(C(=O)c2cnn3c(C)c(Cc4cccc(Cl)c4)c(C)nc23)CC1 [CBK160305]	92.5
CCCCN1CCC(C(=O)Oc2ccc(OC)c3ccccc23)CC1 [CBK122682]	97.2
FC(F)(F)c1cccc(CSc2nccnc2N2CCCC2)c1 [CBK107178]	94.7
COCCCn1c(=O)[nH]c2ncc(-c3ccc(O)cc3)nc21 [CBK064425]	93.6
NC1=C2NN(c3ccc(Cl)cc3Cl)N=C2N(c2ccccc2)N1 [CBK107773]	98.1
CCc1cc(Br)ccc1S(=O)(=O)Nc1ccnn1CC [CBK044900]	92.7
CCc1ccc(-c2ccc(-c3cc(C(=O)O)c4cc(Br)ccc4n3)o2)cc1 [CBK300543]	90.6
COc1ccc(OCC2CCN(C(=O)[C@@H]3C[C@@H]4C=C[C@H]3C4)CC2)cc1 [CBK282218]	93.5
c1ccc(Nc2c(-c3ccccc3)nc3[nH]cnn23)cc1 [CBK287284]	89.4
O=S(=O)(CCOc1ccccc1)N(CCOc1ccccc1)C1CCCCC1 [CBK022003]	103
Cc1cccc(-c2ncc(NC(=O)CCc3cccnc3)nc2-c2ccc(N)cc2)c1 [CBK036684]	86.9
CS(=O)(=O)Nc1nccnc1N1CCN(Cc2ccc([N+](=O)[O-])cc2)CC1 [CBK084274]	103
Cc1cc(NC(=O)CSc2nc3c(c(C(F)(F)F)n2)CCc2ccccc2-3)n(-c2ccccc2)n1 [CBK266086]	106
COc1ccccc1CC(C)NC(=O)CC1CCN(c2nc(C)cc(C)n2)CC1 (stereo not drawn) [CBK285956]	111
COCCNC(=O)c1cc(-c2ccccc2)cnc1N(C)S(C)(=O)=O [CBK076484]	85.8
O=C(Cc1n[nH]c(=O)[nH]c1=O)N/N=C/c1ccc(C(=O)O)cc1 [CBK263525]	99.5
CCCC/C=C/c1cnc2[nH]c(=O)n([C@H](C)c3ccccc3)c2n1 [CBK064182]	99.7

Structure (SMILES)	viability at 28.5 h, 10 µM [%]
NC(=O)c1c(NC(=O)c2ccc3ncsc3c2)sc2c1CCCC2 [CBK287369]	94.4
O=C(Nc1ccc(=O)n2c1[C@@H]1C[C@@H](CN(C(=O)Nc3ccc(F)cc3)C1)C2)c1ccccc1 [CBK288715]	89.9
COc1ccccc1N1CCN(C2CCN(Cc3ccc([N+](=O)[O-])cc3)CC2)CC1 [CBK264734G]	98.8
Cc1ccc2cc(CN(CCNC(=O)OC(C)(C)C)C(=O)NCc3ccccc3)c(=O)[nH]c2c1C [CBK132097]	90.2
O=C(C1CCC1)N1CCC(c2nc(Cc3cccs3)no2)C1 (stereo not drawn) [CBK283028]	90.9
COc1ccc(-c2csc(Nc3ccc(N)cc3)n2)cc1OC [CBK074456]	83.4
O=C(CSc1ccccc1)c1ccccc1 [CBK002224]	97.4
Cc1nc2sc3c(c2c2nc(-c4ccncc4)nn12)CCCC3 [CBK288541]	94.5
CS(=O)(=O)N(Cc1ccccc1)c1ccc(C(=O)Nc2ccc3c(c2)OCO3)cc1 [CBK033562]	85.4
CC(/C=C1\SC(=S)N(CCC(=O)Nc2ccc(O)c(C(=O)O)c2)C1=O)=C\c1ccccc1 [CBK263875]	107
COCCN(Cc1cnn(C)c1)C(=O)Cc1ccc(Cl)cc1 [CBK307407]	97
COc1ccc2cc(CNC(Cc3ccccc3)c3ccccc3)c(Cl)nc2c1 (stereo not drawn) [CBK295357]	93.3
CC(=O)Nc1nonc1OCCOc1nonc1NC(C)=O [CBK020227]	113
CC(C)c1cc(C(=O)N2CCNC(c3ccccc3)C2)nc2ncnn12 (stereo not drawn) [CBK306533]	91.9
C=CCN1CC2(c3ccccc3)CN(CC=C)CC(c3ccccc3)(C1)C2=O [CBK265987]	86.3
CC(C)c1noc(N2CCC(Oc3ccc(-c4ccc(S(C)(=O)=O)cc4)cn3)CC2)n1 [CBK158821]	84.6
Cc1nccn1CC1(O)CCN(CC(C)c2ccccc2)CC1 (stereo not drawn) [CBK284954]	107
CCc1nn(CC(=O)N2CCCCC2)c(=O)c2cc3oc(C)cc3n12 [CBK283575]	104
CC1CCN(S(=O)(=O)N2CCCC2c2cccc(F)c2)CC1 (stereo not drawn) [CBK281957]	93.2
COc1ccnc(N2CCN(C(=O)c3c4c(nn3C)CCCC4)CC2)n1 [CBK304609]	118
COc1ccc(C)cc1S(=O)(=O)n1ccc2c(CNC3CCN(C(C)C)CC3)cccc21 [CBK113310T]	117
Nc1ncc(-c2cccc(CO)c2)nc1N1CCOCC1 [CBK063406]	97.6

Structure (SMILES)	viability at 28.5 h, 10 µM [%]
Cn1ncnc1COc1ccc(S(=O)(=O)NC2CCCC2)cc1 [CBK306305]	107
O=C(Nc1ccc(-c2nnc(-c3ccco3)o2)cc1)C(c1ccccc1)c1ccccc1 [CBK263452]	106
CN(C)CCNCc1cccc(OCc2ccccc2)c1 [CBK278216C]	89.7
CCN1CCN(S(=O)(=O)c2ccc(Br)cc2)CC1 [CBK100197]	99.7
COc1ccc2c(C)nc(NC3=NC(c4ccccc4)CC(=O)N3)nc2c1 (stereo not drawn) [CBK270230]	85.4
Cc1cc(C)cc(N(C(C)C(=O)Nc2ccc(C(F)(F)F)cc2)S(C)(=O)=O)c1 (stereo not drawn) [CBK268834]	89.6
O=C(CSc1ncn(-c2ccccc2)n1)Nc1c(Cl)cccc1Cl [CBK269683]	94.7
CCOC(=O)C1CCN(S(=O)(=O)c2c(C)noc2C)CC1 [CBK051112]	96.9
O=C(O)c1ccc(S(=O)(=O)NC2CCS(=O)(=O)C2)cc1 (stereo not drawn) [CBK262477]	110
O=c1ccc(O)nn1CN1CCN(Cc2ccccc2)CC1 [CBK265539]	91.5
Cc1ccccc1Nc1nc(N)nc(CN2CCN(C)CC2)n1 [CBK304217]	89.9
Cc1c(S(=O)(=O)Nc2ccc(C(O)(C(F)(F)F)C(F)(F)F)cc2)cnn1-c1ccccc1 [CBK062099]	92.1
CC(CCc1ccccc1)NC(=O)c1ccccc1C(=O)O (stereo not drawn) [CBK286940]	94.5
COc1ccc2[nH]c3c(c2c1)CCN(C(C)=O)C31CCNCC1 [CBK284429]	79.1
CN(Cc1ccccc1)Cc1ccccc1O [CBK261879]	92.4
Cn1c(=O)c2c(ncn2CCCN)n(C)c1=O [CBK267707C]	91.8
COc1ccc(C2CC(c3nc4ccccc4[nH]3)=NN2C(=O)CCN2CCCCC2)cc1 (stereo not drawn) [CBK267673]	99.8
Cc1ccc(C(Cc2ccsc2)NS(=O)(=O)c2ccc3[nH]c(=O)[nH]c(=O)c3c2)nc1 (stereo not drawn) [CBK286354]	88.6
CCn1c(C)nc2cc(NC(=O)Cn3cccn3)ccc21 [CBK281828]	89.5
Cc1c(C(C)NC(=O)Nc2ccc(F)cc2F)cnn1C (stereo not drawn) [CBK266986]	95.1
O=C1CC(c2ccccc2F)C2=C(COC2=O)N1 (stereo not drawn) [CBK086692]	92
CCOCCN(CCOCC)c1nnc2ccc(Cl)nn12 [CBK010024]	99.6

Structure (SMILES)	viability at 28.5 h, 10 µM [%]
CCCN(C)Cc1ccc(-c2nnn(CC(=O)NCc3ccc(CC)cc3)n2)cc1NC(C)=O [CBK164703]	105
O=S(=O)(Nc1cccc2[nH]ccc12)c1ccc(F)cc1F [CBK153546]	62.2
O=C(Nc1ccc(SC(F)F)cc1)c1cc(-c2ccncc2)nc2ccccc12 [CBK296092]	85.8
CC(C)(C)OC(=O)N1CCN(CCn2cc(C(=O)O)nn2)CC1 [CBK287112]	86.8
O=C(Oc1ccc(N(C(=O)c2ccncc2)S(=O)(=O)c2cccs2)cc1)c1ccncc1 [CBK265619]	98.7
NC(=O)C1(N2CCCCC2)CCN(CC(=O)Nc2ccc(Oc3ccccc3)cc2)CC1 [CBK265774]	107
COCCN(Cc1nnc(-c2cccs2)o1)C(C(=O)N1CCOCC1)c1ccccc1 (stereo not drawn) [CBK295190]	104
Cc1nn(C)cc1-c1cncn1C(C)c1ccc2c(c1)CCCO2 (stereo not drawn) [CBK281798]	100
O=C(CCOc1ccc(F)cc1)Nc1cnc(-c2ccc(F)cc2)c(-c2ccoc2)n1 [CBK037166]	91.9
Cc1ccc(-c2cc(C(=O)NCC3(C)COC3)no2)cc1 [CBK281744]	93.8
Cc1ccn2cc(CNC(=O)CCC(C)N3CCN(C)CC3)nc2c1 (stereo not drawn) [CBK306628]	97.2
CNS(=O)(=O)c1cccc(C(C)NC(=O)N2CCC(COC)CC2)c1 (stereo not drawn) [CBK304087]	90.4
CCn1c2ccccc2n2c(SC(C)C(=O)O)nnc12 (stereo not drawn) [CBK267079]	103
COC(=O)c1c(NC(=O)Cn2nc([N+](=O)[O-])c(Cl)c2C)sc2c1CCCC2 [CBK263047]	83.9
Cc1c(C(=O)N(C)Cc2csc(Br)c2)nnn1C1CCNCC1 [CBK304491]	104
Nc1nc(COc2ccc(F)cc2)nc(N2CCOCC2)n1 [CBK288183]	91.5
COc1cccc(C(=O)NC(c2ccc([N+](=O)[O-])cc2)c2c(O)ccc3ccccc23)c1 (stereo not drawn) [CBK263971]	84.2
COc1cccc(C(=O)NCCC(=O)N2CCN(C)CC2)c1 [CBK304663]	95.4
CN(Cc1cccnc1)CC1CCCN(C(=O)Nc2ccc(Cl)cc2)C1 (stereo not drawn) [CBK305428]	83.9
CN1CCN(C(=O)Cn2cc(C(=O)Nc3ccc(F)cc3)ccc2=O)C(c2ccccc2)C1 (stereo not drawn) [CBK286050]	81.9
CSc1ccc(/C=C(\C#N)c2nn(-c3ccccc3)c(N)c2C#N)cc1 [CBK262339]	105
